Experimental findings from US20070003536A1, “Topical skin compositions, their preparation, and their use” (priority 2000, published 2007) are described below.

Experiment [1] has as its target T1, MMP-1 (interstitial collagenase) (Homo sapiens, UniProt P03956).
T1 construct: purchased Amersham
T1 sequence (P03956 100-469): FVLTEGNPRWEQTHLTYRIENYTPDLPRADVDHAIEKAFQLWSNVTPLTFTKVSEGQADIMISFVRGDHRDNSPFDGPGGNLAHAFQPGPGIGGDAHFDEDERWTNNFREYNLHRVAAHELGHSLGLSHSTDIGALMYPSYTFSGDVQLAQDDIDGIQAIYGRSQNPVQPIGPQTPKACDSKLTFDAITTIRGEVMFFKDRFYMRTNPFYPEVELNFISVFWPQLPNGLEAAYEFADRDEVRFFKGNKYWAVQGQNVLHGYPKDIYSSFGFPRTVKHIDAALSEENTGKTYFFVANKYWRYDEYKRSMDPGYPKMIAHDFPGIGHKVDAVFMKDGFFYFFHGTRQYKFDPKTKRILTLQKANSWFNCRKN
In words: MMP-1 activity kit (Amersham). The experiment is classed as biochemical. The conditions noted are these: samples diluted to 100 mg/ml using PBS; FIG. 5. From the text: FIG. 5 is a graph showing the effect of samples on MMP-1 activity. The data are expressed as % control MMP-1 activity. The horizontal line denotes 100% activity.
The matrix metalloproteinases (MMP) are a group of zinc dependent enzymes, which degrade varying components of the extracellular matrix in both normal and diseased tissue. MMP-1 (interstitial collagenase) is thought to initiate the cleavage of fibrillar collagen while MMP-9 (gelatinase) digests the denatured collagen fragments generated by MMP-1. The products of MMP-9 digestion are then free to be incorporated into new collagen fibrils. Elastase breaks down elastin. The expression of these enzymes is under strict control and changes as individuals age or are exposed to UV irradiation. Because MMP-1 is involved in initiation of collagen breakdown, it would be advantageous for skin care products to inhibit MMP-1 activity. […] Finally, elastase should be inhibited as to prevent digestion of elastin and the […] of the skin.
Commercially available kits were used for testing the effect of the samples on the activity of the MMPs of interest. For MMP-1, a kit from Amersham was used according to the manufacturer's specifications. For MMP-9 and Elastase, kits from Molecular Probes were used. The samples were prepared in the solvent noted in table I at stock concentrations of 100 mg/ml. […]

The subject of a further experiment is RAW 264.7 cells. As to the kind of experiment: NO production by LPS stimulated RAW 264.7 cells (Griess reagent). The experiment is classed as cell-based, Murine. To be noted: for inhibitory effect on nitrite accumulation in culture supernatants: LPS stimulated RAW cells, in words; for Nitrite produced: LPS 100 ng/ml, LPS control 901.7. How it is done:
FIG. 8 is a graph showing the effect of samples on NO production by RAW 264.7 cells. Data are expressed as % NO produced compared to the LPS stimulated positive control. L6=Lipochroman-6, NT=Nutriene tocotrienols, TQS=γ-Tocopherylquinone S, VC=Viapure Citrus, SZ=Soybean Zymbiosome, and NPR=NAB Pikea robusta.
Cells in skin can produce nitric oxide (NO) when exposed to UV light, and NO thus produced has the potential to induce age associated changes in skin. This study was performed in order to screen a panel of cosmetics and skin care raw materials for their effect on NO production by RAW 264.7 cells.
Murine RAW 264.7 cells were seeded in a 96 well plate at 1×10^5 cells /well. The plate was incubated overnight. The following day, the cells were treated with the samples at 0.001, 0.01, and 0.1% for 2 hours. The samples are listed below in Table II. Following the exposure period, LPS was added to the wells at 100 ng/ml. The plate was incubated overnight. Equal volumes of culture supernatant and Griess reagent were incubated for 15 min at room temperature and the absorbance at 540 nm was read. The amount of nitrite in the samples was calculated from a standard curve generated with sodium nitrite.

Experiment [2] has as its system Human dermal fibroblasts (Hs-27). In words: Elastin secretion by fibroblasts, energy booster samples with co-stimuli, Example 4. The experiment is classed as cell-based. To be noted: Media line: stimulus alone, no energy booster (Centella asiatica, vitamin C 0.001%; Biodynes EMPP 0.1%). As to the method:
(§1) Four new samples that boost cellular energy were tested for their ability to augment extracellular matrix component production in response to Centella and Biodynes. Human dermal fibroblasts were used as these cells actively synthesize extracellular matrix components. In addition to measuring procollagen and elastin levels, hyaluronic acid levels were also measured. Hyaluronic acid is a member of the glycosaminoglycan family of compounds. Glycosaminoglycans make up the ground substance of connective tissue, and along with elastin, help provide elasticity to skin. They also hold water and therefore provide viscosity and hydrating properties.
(§2) Samples were diluted in media. Centella asiatica and vitamin C were prepared at 0.001%. Biodynes EMPP was prepared at 0.1%. Centella asiatica was prepared as an extract in DMSO:ethanol:water at 50:30:20. The “energy booster” samples, Seanergilium algae extract, Thiotaine, Sepitonic, and Phytovityl corn kernel extract, were all prepared in media at 0.01, 0.1, and 1.0%. Human dermal fibroblasts (Hs-27) were plated in 24 well plates and were incubated overnight. The cells were treated with the samples at the concentrations indicated for 2 consecutive days. […]

The test system is the same in experiment [3]. In words: Procollagen secretion by fibroblasts, energy booster samples with co-stimuli, Example 4. It is filed as cell-based. To be noted: Media line: stimulus alone, no energy booster (Centella asiatica, vitamin C 0.001%; Biodynes EMPP 0.1%); media control 1533. How it is done:
as §1, §2

Experiment [4] has the same test system. As to the kind of experiment: Hyaluronic acid secretion by fibroblasts, energy booster samples with co-stimuli, Example 4. It is filed as cell-based. To be noted: Media line: stimulus alone, no energy booster (Centella asiatica, vitamin C 0.001%; Biodynes EMPP 0.1%); media control 1112. As to the method:
as §1
Samples were diluted in media. Centella asiatica and vitamin C were prepared at 0.001%. Biodynes EMPP was prepared at 0.1%. Centella asiatica was prepared as an extract in DMSO:ethanol:water at 50:30:20. The “energy booster” samples, Seanergilium algae extract, Thiotaine, Sepitonic, and Phytovityl corn kernel extract, were all prepared in media at 0.01, 0.1, and 1.0%. Human dermal fibroblasts (Hs-27) were plated in 24 well plates and were incubated overnight. […]
Data are expressed as ng hyaluronic acid/ml culture supernatant. The amount of hyaluronic acid in each supernatant was calculated from a standard curve generated using a hyaluronic acid standard supplied with the ELISA kit.

For `COC1=C(OC)C(=O)C(C/C=C(\C)CC/C=C(\C)CC/C=C(\C)CC/C=C(\C)CC/C=C(\C)CC/C=C(\C)CC/C=C(\C)CC/C=C(\C)CC/C=C(\C)CCC=C(C)C)=C(C)C1=O` [CoQ10, 2,3,-dimethoxy-5-methyl-6-decaprenyl-benzoquinone], the “effect on MMP-1 activity” value in experiment [1] is “most potent activators”.

Consider `COc1cc2c(cc1O)CCC(C)(C)O2` [Lipochroman-6], for which the “inhibitory effect on nitrite accumulation in culture supernatants” value is recorded as “most potent” in the experiment with RAW 264.7 cells and “more inhibitory activity than do mixed tocopherols” in the experiment on RAW 264.7 cells (listed as L6). In addition, the Nitrite produced worked out at 1006.5 ng/mL with RAW 264.7 cells (dose 0.001%), 750.7 ng/mL in the experiment on RAW 264.7 cells (dose 0.01%) and 336.7 ng/mL with RAW 264.7 cells (dose 0.1%).

For the compound `O=C1O[C@H]([C@@H](O)CO)C(O)=C1O` [Vitamin C, ascorbic acid], the “elastin secretion, % media control elastin” value in experiment [2] turned out to be 148%. This compound also registered a procollagen secretion in experiment [3] of 1744 ng/mL. Moreover, in experiment [4], the hyaluronic acid secretion was 633 ng hyaluronic acid/ml culture supernatant.

Take `CC1=C(C)C(=O)C(CC[C@](C)(O)CCC[C@H](C)CCC[C@H](C)CCCC(C)C)=CC1=O` [g-Tocopherylquinone S]: the “inhibitory effect on nitrite accumulation in culture supernatants” value with RAW 264.7 cells was “most potent”. For the same compound, the figures for the Nitrite produced in the experiment on RAW 264.7 cells (dose 0.001%), in the experiment with RAW 264.7 cells (dose 0.01%) and with RAW 264.7 cells (dose 0.1%) were 754.2 ng/mL, 830.3 ng/mL and 217.9 ng/mL, respectively.
